Among the data in patent US20250388593A1 (MITSUBISHI TANABE PHARMA CORPORATION, priority 2023, published 2025) are Kd values, retold here.

In the assay the target is CRBN truncate (318-426) (Homo sapiens (Human), UniProt Q96SW2). Description: Measurement of molecular interactions using surface plasmon resonance (SPR), Biacore T200. Type of assay: binding. Conditions: 25° C., immobilized CRBN truncate, upper limit of measurement 200 μM. Here is the method: The instrument used was the Biacore T200 (manufactured by Cytiva). The CRBN truncate (318-426) was obtained by expressing a construct with an Avi-tag added at the C-terminus. The sensor chip used was Sensor Chip SA (manufactured by Cytiva). The CRBN truncate was immobilized using the affinity between SA (streptavidin) on the sensor chip and the Avi-tag. The running buffer was a mixture of 10 mM HEPES pH 7.5, 150 mM NaCl, 1 mM TCEP, 0.005% Tween 20, and 2% DMSO. […] Contact time and dissociation time were set at 60 seconds and 120 seconds, respectively.
CRBN truncate (318-426), sequence (Q96SW2 318-426): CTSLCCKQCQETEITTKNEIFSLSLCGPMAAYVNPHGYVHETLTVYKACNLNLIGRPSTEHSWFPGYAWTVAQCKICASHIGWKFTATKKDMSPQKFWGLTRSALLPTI
A general note: Surface plasmon resonance follows binding to a sensor surface in real time, without labels.
In the case of `Cc1sc2c(c1C)C(c1ccc(Cl)cc1)=N[C@@H](CC(=O)NCCCCCCCCNC(=O)c1cc3c(N4CCC5(CCCC(=O)NC5=O)C4)ncnc3n1C)c1nnc(C)n1-2` (stereo partly drawn) [Example 328, N-[8-[[2-[(9S)-7-(4-Chlorophenyl)-4,5,13-trimethyl-3-thia-1,8,11,12-tetraazatricyclo[8.3.0.02,6]trideca-2(6),4,7,10,12-pentaen-9-yl]acetyl]amino]octyl]-4-(6,8-dioxo-2,7-diazaspiro[4.6]undecan-2-yl)-7-methylpyrrolo[2,3-d]pyrimidine-6-carboxamide], the Kd (commonly the constant that tells how readily two partners part at equilibrium) was under 50 µM.
Consider `CC(C)(C)OC(=O)NCCCCCOc1ccc2nc(N3CC4(CC(=O)N(C5CCC(=O)NC5=O)C4=O)C3)sc2c1` (stereo not shown) [Example 241, tert-Butyl N-[5-[[2-[6-(2,6-dioxopiperidin-3-yl)-5,7-dioxo-2,6-diazaspiro[3.4]octan-2-yl]-1,3-benzothiazol-6-yl]oxy]pentyl]carbamate], for which the dissociation constant (Kd) was at least 100 µM.
Take `O=C1CCCC(n2nc(Cl)ccc2=O)C(=O)N1` (stereo not shown) [Example 252, 3-(3-Chloro-6-oxopyridazin-1-yl)azepane-2,7-dione]: the dissociation constant Kd is at least 100 µM.
Turning to `CC(C)(C)OC(=O)c1ccc(N2CCC3(CCCC(=O)NC3=O)CC2=O)nc1` (stereo not shown) [Example 108, tert-Butyl 6-(4,7,9-trioxo-3,8-diazaspiro [5.6]dodecan-3-yl) pyridine-3-carboxylate], the Kd lay in the range of 50 to 100 µM.
For `COc1cccc2sc(N3CCC4(CCCC(=O)NC4=O)C3)nc12` (stereo not shown) [Example 189, 2-(4-Methoxy-1,3-benzothiazol-2-yl)-2,7-diazaspiro[4.6]undecane-6,8-dione], the Kd was at least 100 µM.
As for `CC(C)(C)OC(=O)NCCCCCCCNc1ccc2nc(N3CCCC(=O)NC3=O)sc2c1` [Example 303, tert-Butyl N-[7-[[2-(2,4-dioxo-1,3-diazepan-1-yl)-1,3-benzothiazol-6-yl]amino]heptyl]carbamate], the Kd is at least 100 µM.
In the case of `O=Cc1ccc(N2CCC3(CCCC(=O)NC3=O)C2)nc1` (stereo not shown) [Example 76, 6-(6,8-Dioxo-2,7-diazaspiro[4.6]undecane-2-yl)pyridine-3-carbaldehyde] it was at least 100 µM.
For `CC1(N2CCCC(=O)NC2=O)C(=O)N(CC(=O)O)c2ccccc21` (stereo not shown) [Example 292, 2-[3-(2,4-dioxo-1,3-diazepan-1-yl)-3-methyl-2-oxoindol-1-yl]acetic acid], the Kd was at least 100 µM.
Turning to `Cc1sc2c(c1C)C(c1ccc(Cl)cc1)=N[C@@H](CC(=O)NCCCCCCCCNC(=O)CCc1ccc3c(c1)oc(=O)n3C1CCCC(=O)NC1=O)c1nnc(C)n1-2` (stereo partly drawn) [Example 341, N-[8-[[2-[(9S)-7-(4-chlorophenyl)-4,5,13-trimethyl-3-thia-1,8,11,12-tetraazatricyclo[8.3.0.02,6]trideca-2(6),4,7,10,12-pentaen-9-yl]acetyl]amino]octyl]-3-[3-(2,7-dioxoazepan-3-yl)-2-oxo-1,3-benzoxazol-6-yl]propanamide], the Kd is under 50 µM.
To `CC(C)(C)OC(=O)c1ccc(N2CCC3(CCCC(=O)NC3=O)C2)cc1` (stereo not shown) [Example 128, tert-Butyl 4-(6,8-dioxo-2,7-diazaspiro [4.6]undecan-2-yl) benzoate] belongs under 50 µM.
In the case of `CN1C(=O)C(C)(N2C=CCC(=O)NC2=O)c2cccc(/C=C/C(=O)OC(C)(C)C)c21` (stereo not shown) [Example 289, tert-Butyl (E)-3-[3-(2,4-dioxo-5H-1,3-diazepin-1-yl)-1,3-dimethyl-2-oxoindolin-7-yl]prop-2-enoate] it was under 50 µM; in that of `O=C1CCCC2(CCCN(C(=O)c3ccccc3)CCC2)C(=O)N1` [Example 14, 11-Benzoyl-2,11-diazaspiro[6.7]tetradecane-1,3-dione], 50 to 100 µM.
In the case of `O=C1CCCC2(CCN(C(=O)c3nc4ccccc4o3)C2)C(=O)N1` (stereo not shown) [Example 154, 2-(1,3-Benzoxazole-2-carbonyl)-2,7-diazaspiro[4.6]undecane-6,8-dione] it was at least 100 µM; in that of `CC(C)(C)OC(=O)c1cnc(N2CCCC(=O)NC2=O)s1` [Example 115, tert-Butyl 2-(2,4-dioxo-1,3-diazepan-1-yl) thiazole-5-carboxylate], 50 to 100 µM; in that of `CC(=O)N1CCc2nc(N3CCC4(CCCC(=O)NC4=O)C3)ncc2C1` (stereo not shown) [Example 178, 2-(6-Acetyl-7,8-dihydro-5H-pyrido[4,3-d]pyrimidin-2-yl)-2,7-diazaspiro[4.6]undecane-6,8-dione], under 50 µM.
The compound `O=C1CCCC2(CCN(C(=O)C3CCN(c4ncccn4)CC3)C2)C(=O)N1` (stereo not shown) [Example 269, 2-(1-Pyrimidin-2-ylpiperidine-4-carbonyl)-2,7-diazaspiro [4.6]undecane-6,8-dione] had a Kd of at least 100 µM.
`CC(C)(C)OC(=O)c1cccc(N2CCC3(CCCC(=O)NC3=O)CC2=O)c1` (stereo not shown) [Example 110, tert-Butyl 3-(4,7,9-trioxo-3,8-diazaspiro [5.6]dodecan-3-yl) benzoate]: the Kd is at least 100 µM.
For `O=C1CCCC(NS(=O)(=O)c2cccc(Cl)c2)C(=O)N1` (stereo not shown) [Example 9, 3-Chloro-N-(2,7-dioxoazepan-3-yl) benzenesulfonamide], the Kd is at least 100 µM.
To `O=C1CCCC(NS(=O)(=O)c2ccc(Cl)cc2)C(=O)N1` (stereo not shown) [Example 8, 4-Chloro-N-(2,7-dioxoazepan-3-yl) benzenesulfonamide] belongs at least 100 µM.
To `CN(C1CCCC(=O)NC1=O)S(=O)(=O)c1cccc(Cl)c1` (stereo not shown) [Example 10, 3-Chloro-N-(2,7-dioxoazepan-3-yl)-N-methylbenzenesulfonamide] belongs at least 100 µM.
In turn, `CC(C)(C)OC(=O)CCCCCCCn1c(=O)n(C2CCCC(=O)NC2=O)c2ccccc21` (stereo not shown) [Example 195, tert-Butyl 8-[3-(2,7-dioxoazepan-3-yl)-2-oxobenzimidazol-1-yl]octanoate] registered a Kd of under 50 µM.
In the case of `C[C@@H]1Cc2c([nH]c3ccccc23)[C@@H](c2cnc(N3CCC(CN(C)CCCCCCCc4cccc5c4n(C)c(=O)n5C4CCCC(=O)NC4=O)CC3)nc2)N1CC(C)(C)F` (stereo partly drawn) [Example 360-3, 3-[4-[7-[[1-[5-[(1R,3R)-2-(2-fluoro-2-methyl-propyl)-3-methyl-1,3,4,9-tetrahydropyrido[3,4-b]indol-1-yl]pyrimidin-2-yl]-4-piperidyl]methyl-methyl-amino]heptyl]-3-methyl-2-oxo-benzimidazol-1-yl]azepane-2,7-dione] it was under 50 µM; in that of `O=C1CCCC2(CCN(c3ccc([N+](=O)[O-])cc3)C(=O)C2)C(=O)N1` (stereo not shown) [Example 225, 3-(4-Nitrophenyl)-3,8-diazaspiro [5.6]dodecane-4,7,9-trione], at least 100 µM; in that of `Cn1c(=O)n(C2CCCC(=O)NC2=O)c2cccc(C#CCCCCCC(=O)OC(C)(C)C)c21` (stereo not shown) [Example 206, tert-Butyl 8-[1-(2,7-dioxoazepan-3-yl)-3-methyl-2-oxobenzimidazol-4-yl]oct-7-ynoate], under 50 µM.
`Cc1sc2c(c1C)C(c1ccc(Cl)cc1)=N[C@@H](CC(=O)NCCCCCOc1ccc3nc(N4CCC5(CCCC(=O)NC5=O)C4)sc3c1)c1nnc(C)n1-2` (stereo partly drawn) [Example 322, 2-[(9S)-7-(4-chlorophenyl)-4,5,13-trimethyl-3-thia-1,8,11,12-tetraazatricyclo[8.3.0.02,6]trideca-2(6),4,7,10,12-pentaen-9-yl]-N-[5-[[2-(6,8-dioxo-2,7-diazaspiro[4.6]undecan-2-yl)-1,3-benzothiazol-6-yl]oxy]pentyl]acetamide] yielded a Kd of under 50 µM.
